# Assay results reported in the supplement of paper PMC10307832.
# Assays:
# Test in all cases: relative viability (nuclei count vs DMSO), 5 days (fraction); higher = more cells survive
# [1] = compound: CCN1CCC(CC1)N2C=C(N=N2)CNC3=CC4=C(C(=CN=C4C(=C3)Cl)C#N)NC5=CC(=C(C=C5)F)Cl [KIN001-266] + CS(=O)(=O)CCNCc1ccc(-c2ccc3ncnc(Nc4ccc(OCc5cccc(F)c5)c(Cl)c4)c3c2)o1 [Lapatinib] (partner 2 µM)
# How it was run: (§1)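 Dosing by pin tool came one day after lung cancer cell lines were seeded in 1536-well plates, using either one drug or a fixed anchor-drug dose plus five library-drug doses (not always all listed) in √10 steps. After 5 days, nuclei were counted on 4× images. Relative viability is treated-well nuclei count divided by vehicle-well nuclei count, and values are medians of duplicate plates.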
# [2] = compound: CCN1CCC(CC1)N2C=C(N=N2)CNC3=CC4=C(C(=CN=C4C(=C3)Cl)C#N)NC5=CC(=C(C=C5)F)Cl [KIN001-266] + Cc1nc(Nc2ncc(C(=O)Nc3c(C)cccc3Cl)s2)cc(N2CCN(CCO)CC2)n1 [Dasatinib] (partner 0.075 µM)
# How it was run: as §1
# [3] = compound: CCN1CCC(CC1)N2C=C(N=N2)CNC3=CC4=C(C(=CN=C4C(=C3)Cl)C#N)NC5=CC(=C(C=C5)F)Cl [KIN001-266] + Nc1nc2[nH]cc(CCc3ccc(C(=O)N[C@@H](CCC(=O)O)C(=O)O)cc3)c2c(=O)[nH]1 [Pemetrexed] (partner 0.2 µM)
# How it was run: as §1
# [4] = compound: CCN1CCC(CC1)N2C=C(N=N2)CNC3=CC4=C(C(=CN=C4C(=C3)Cl)C#N)NC5=CC(=C(C=C5)F)Cl [KIN001-266] + C[C@@H](Oc1cc(-c2cnn(C3CCNCC3)c2)cnc1N)c1c(Cl)ccc(F)c1Cl [Crizotinib] (partner 1 µM)
# How it was run: as §1
Cell Line,relative viability ([1]; first compound 0.08 µM),relative viability ([1]; first compound 0.253 µM),relative viability ([1]; first compound 0.8 µM),relative viability ([1]; first compound 2.53 µM),relative viability ([1]; first compound 8 µM),relative viability ([2]; first compound 0.08 µM),relative viability ([2]; first compound 0.253 µM),relative viability ([2]; first compound 0.8 µM),relative viability ([2]; first compound 2.53 µM),relative viability ([2]; first compound 8 µM),relative viability ([3]; first compound 0.08 µM),relative viability ([3]; first compound 0.253 µM),relative viability ([3]; first compound 0.8 µM),relative viability ([3]; first compound 2.53 µM),relative viability ([3]; first compound 8 µM),relative viability ([4]; first compound 0.08 µM),relative viability ([4]; first compound 0.8 µM),relative viability ([4]; first compound 8 µM),relative viability ([4]; first compound 0.253 µM),relative viability ([4]; first compound 2.53 µM)
LK-2,1.06,0.836,0.884,0.834,1.05,0.361,0.256,0.237,0.269,0.22,0.275,0.237,0.211,0.158,0.273,0.229,0.219,0.239,–,–
NCI-H661,0.494,0.449,0.532,0.438,0.29,0.897,1.01,0.847,0.894,0.657,0.913,0.946,0.932,0.856,0.741,1.1,–,0.887,0.959,–
NCI-H2342,–,–,–,–,–,0.298,0.303,0.258,0.264,0.31,0.785,0.738,0.619,0.705,0.91,–,–,–,–,–
HCC-366,0.911,1.03,1,1.05,1.02,0.783,0.591,0.627,0.656,0.656,0.207,0.157,0.144,0.184,0.24,0.52,0.478,0.5,0.514,0.482
HOP-62,0.944,0.801,1.13,0.815,1.09,0.662,0.686,0.601,0.675,0.55,0.313,0.304,0.469,0.353,0.381,0.823,0.924,0.971,1.09,0.963
NCI-H1944,0.826,0.895,0.774,0.816,0.828,0.244,0.215,0.187,0.214,0.209,0.616,0.572,0.596,0.664,0.57,1.13,1.1,1.24,1.13,1.08
SW 1573,1.09,1.13,1.11,0.88,1.04,0.515,0.735,0.483,0.503,0.437,0.809,0.792,0.94,0.713,0.751,0.695,0.81,0.68,0.846,0.663
NCI-H441,–,–,–,–,–,0.655,0.836,0.64,0.658,0.362,0.251,0.253,0.233,0.261,0.248,0.86,0.756,0.665,0.874,0.775
EBC-1,0.219,0.218,0.209,0.199,0.201,–,–,–,–,–,–,–,–,–,–,0.183,0.205,0.185,0.205,0.203
HCC-44,0.964,1.03,0.959,0.985,1.02,–,–,–,–,–,0.678,0.651,0.607,0.592,0.642,0.812,0.754,0.743,0.785,0.797
NCI-H1648,–,–,–,–,–,–,–,–,–,–,0.641,0.791,0.66,0.626,0.758,–,–,–,–,–
SW 900,–,–,–,–,–,0.753,0.491,0.544,0.764,0.507,0.494,0.496,0.491,0.47,0.43,–,–,–,–,–
ABC-1,1.18,1.08,1.12,1.14,1.1,0.521,0.632,0.652,0.489,0.399,–,–,–,–,–,1.29,1.26,0.435,1.31,1.04
NCI-H1793,0.646,0.643,0.81,0.485,0.561,0.332,0.389,0.391,0.329,0.369,0.895,0.925,–,0.771,0.621,–,–,–,–,–
NCI-H1395,1.28,1.13,1.25,0.935,1.16,0.413,0.388,0.43,0.418,0.429,0.871,1.02,0.964,0.784,0.847,–,–,–,–,–
NCI-H1299,0.918,0.959,0.902,0.854,0.855,–,–,–,–,–,–,–,–,–,–,0.946,0.941,0.817,0.921,0.87
ChaGo-K-1,–,–,–,–,–,0.581,0.58,0.528,0.512,0.533,0.264,0.268,0.255,0.25,0.237,1.09,–,0.982,1.12,1.09
NCI-H522,–,–,–,–,–,0.919,0.918,0.853,0.862,0.934,1.06,1.01,1.01,1.06,0.932,–,–,–,–,–
A549,1.03,0.991,1.05,0.924,0.84,–,–,–,–,–,–,–,–,–,–,0.771,0.83,0.693,0.733,0.739
IA-LM,0.967,0.752,0.989,0.861,0.474,–,–,–,–,–,–,–,–,–,–,0.885,0.693,0.585,0.748,0.753
LCLC-103H,–,–,–,–,–,0.538,0.494,0.436,0.519,0.452,0.471,0.482,0.47,0.426,0.514,1.05,1.01,0.927,1.06,1.02
Calu-6,1.09,1.05,1.02,1,0.899,–,–,–,–,–,–,–,–,–,–,0.768,0.825,0.595,0.763,0.81
